Results: US20130310347A1, “MULTI-MODALITY MOLECULAR IMAGING HIGH-THROUGHPUT ASSAY FOR IDENTIFYING HEAT SHOCK PROTEIN 90 (HSP90) INHIBITORS” (The Board of Trustees of the Leland Stanford Junior …, priority 2012, published 2013)

What was measured:
[1] = 18F-FDG uptake in the brains of mice; assay type: in vivo; details: CP9 treated mice; P>0.05 vs carrier
Method: The ^18F-FDG uptake in the brains of mice using CT images to delineate boundaries was also analyzed. Relative to day 0, the maximum % ID/g of ^18F-FDG uptake was 114±11% in mice treated with carrier and 99±4% in mice treated with CP9. There was no statistical difference between the two groups (P>0.05).

Hsp90α/p23 interactions = target: T1, Hsp90α/p23 interactions (Homo sapiens, UniProt P07900); assay: CP9 analogue evaluation, RL/FL imaging in 293Tα-FG cells; assay type: cell-based; details: time- and dose-response curves in 293T-FG cells; read-out: IC50 for inhibition of Hsp90α/p23 signals
T1 construct: expressed in transfected cells; also with FL-eGFP reporter (293Tα-FG) and as xenografts in nude mice
Method: To improve the efficacy of CP9 in disruption of Hsp90(α/β)/p23 interactions in living mice, a structure-activity relationship (SAR) study was performed using 62 structural analogues (10 μM) with different modifications on CP9, as shown in FIGS. 2A-2G, using the 293T(α/β)-FG stable cells. Their effects on Hsp90(α/β)/p23 interactions and cell proliferation were monitored by sequential RL (FIG. 11A) and FL imaging at 24 h. CP9, PU-H71 and 17-AAG were used as positive controls. The net effect on Hsp90(α/β)/p23 interactions was determined by normalizing RL to that of FL signals and to that of carrier control-treated cells (FIG. 11B).
The IC50 for growth inhibition by A17 was about 2-fold lower than that of CP9 (FIG. 12A).
CP9 (0.3-10 μM), 17-AAG (10 μM) and PU-H71 (5 μM) were used as positive controls in triplicate wells. The efficacy of the analogues in disruption of Hsp90(α/β)/p23 and cell proliferation were monitored by RL imaging (2 h post upon addition of ENDUREN® at 30 μM final concentration) followed by FL imaging (10 mins post addition of D-Luc at 0.225 mg/ml final concentration) using a cooled CCD camera (1 min and 10 sec for RL and FL imaging, respectively). […] The effect of the CP9 analogues on degradation of Hsp90 client proteins in 293T cells were also monitored by western blotting as described above.

[2] = tested on: Hsp90 client proteins (Raf-1, total and phosphorylated Akt); assay: Western blotting of Hsp90 client proteins in 293T cells; assay type: cell-based, human; details: 5 μM, 24 h
Method: FIG. 5A is a digital image of a western blot analysis illustrating the effect of lead compounds on the expression of Hsp90 client proteins. 293T cells stably expressing Hsp90(α/β)/p23 split reporters were treated with carrier control or compounds CP1, CP9, or CP18 (5 μM each) for 24 h. The known Hsp90 inhibitor PU-H71 (2 μM) was used as a positive control. The expression of Hsp90 client proteins (Raf-1, total and phosphorylated Akt) was determined by western blotting. α-Tubulin was used as a loading control.
Cells treated with PU-H71 (2 μM) served as a positive control.
Cells treated with 2 μM of PU-H71 served as a positive control. Western blotting of Hsp70, phosphorylated and total Akt and co-immunoprecipitation of Hsp90(α/β)/p23 interactions was performed as described Inglese et al., (2006) Proc. Nat. Acad. Sci. U.S.A. 103: 11473-11478, incorporated herein by reference in its entirety. The expression of Raf-1 was determined using rabbit polyclonal antibodies against Raf-1 (0.5 μg/ml, Abcam).

Hsp90 client proteins = assay: Western blotting of Hsp90 client proteins in normal MEF cells; assay type: cell-based; details: normal mouse embryonic fibroblasts
Excerpt: CP9 had no effect on the expression of the Hsp90 client proteins in normal mouse embryonic fibroblasts (MEF) cells (FIG. 10C).

purified Hsp90β = purified Hsp90β (Homo sapiens, UniProt P08238); assay: In vitro competitive binding with 3H-17AAG; details: CP9 200 μM pre-incubation
purified Hsp90β, sequence (P08238 whole entry): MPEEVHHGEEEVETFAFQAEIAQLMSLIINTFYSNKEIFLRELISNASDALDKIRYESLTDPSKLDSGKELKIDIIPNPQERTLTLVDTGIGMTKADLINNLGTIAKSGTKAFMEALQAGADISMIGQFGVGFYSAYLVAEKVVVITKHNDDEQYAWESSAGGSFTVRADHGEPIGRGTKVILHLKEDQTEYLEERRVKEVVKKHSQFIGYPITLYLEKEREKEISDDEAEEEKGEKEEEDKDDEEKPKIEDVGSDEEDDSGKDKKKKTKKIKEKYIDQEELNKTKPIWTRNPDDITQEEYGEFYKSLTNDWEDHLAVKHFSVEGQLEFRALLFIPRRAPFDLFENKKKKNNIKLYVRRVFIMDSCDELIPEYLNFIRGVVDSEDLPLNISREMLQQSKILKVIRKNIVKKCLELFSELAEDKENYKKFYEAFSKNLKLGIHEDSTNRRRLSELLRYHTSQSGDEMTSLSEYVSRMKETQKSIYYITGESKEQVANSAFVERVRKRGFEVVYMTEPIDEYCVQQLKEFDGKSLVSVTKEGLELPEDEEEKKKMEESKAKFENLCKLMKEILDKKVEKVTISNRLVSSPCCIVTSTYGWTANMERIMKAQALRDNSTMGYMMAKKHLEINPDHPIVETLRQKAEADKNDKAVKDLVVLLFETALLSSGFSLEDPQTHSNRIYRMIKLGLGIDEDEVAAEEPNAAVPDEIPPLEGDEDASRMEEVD
Method: (§1) FIG. 5C is a graph illustrating the competitive in vitro binding of CP9 with ^3H-17AAG to Hsp90(α/β). Purified Hsp90(α/β) was pre-incubated with CP9 (200 μM) or cold 17-AAG (50 μM) prior to incubation with ^3H-17AAG. The reaction complexes were then eluted through a desalting column to remove any unbound ^3H-17AAG prior to scintillation counting for the amount of ^3H-17AAG bound to Hsp90(α/β). Columns incubated with ^3H-17AAG alone served as negative controls. Results are expressed as means of triplicates±S.E.M. *, p<5×10^−6 vs. carrier control-treated cells.
(§2) To confirm the direct binding of CP9 to Hsp90(α/β), an in vitro competitive binding assay using purified Hsp90α and Hsp90β was performed using radiolabeled Hsp90 inhibitor ^3H-17AAG. Hsp90 proteins were pre-bound with CP9 or cold 17-AAG as a control prior to incubation with ^3H-17AAG. Unbound ^3H-17AAG was removed and the amount of ^3H-17AAG bound to the Hsp90 proteins was determined. […] To confirm cellular Hsp90 as the target of CP9, uptake studies in intact HT29 cells were performed by monitoring the competitive binding of ^3H-17AAG. […]
(§3) To verify the binding of CP9 to Hsp90α and Hsp90β in vitro, a displacement assay using ^3H-17AAG was performed. […] The amount of ^3H-17AAG that remained bound to Hsp90α or Hsp9013 was determined by scintillation counting.

purified Hsp90α = purified Hsp90α (Homo sapiens, UniProt P07900); assay: In vitro competitive binding with 3H-17AAG; details: CP9 200 μM pre-incubation; p<0.05
Method: as §1, §2, §3

Cc1cc(NC(=O)CSc2nc(-c3cccs3)cc(C(F)(F)F)n2)no1 [CP9, N-(5-methylisoxazol-3-yl)-2-(4-(thiophen-2-yl)-6-(trifluoromethyl)pyrimidin-2-ylthio)acetamide]
maximum % ID/g of 18F-FDG uptake in brain relative to day 0 [1]: 99±4% | IC50 (Hsp90α/p23 interactions): 0.45 µM | levels of Hsp90 client proteins (pAkt/total Akt, Raf-1) [2]: more effective than CP18 | expression of Hsp90 client proteins (Hsp90 client proteins): no effect | binding of 3H-17AAG to Hsp90β (purified Hsp90β): did not significantly affect | reduction of binding of 3H-17AAG to purified Hsp90α (purified Hsp90α): about 50%
